Where two headings read alike, the source gives them in different places.
Key:
[1] = molecular target: T1, COX-1 (Homo sapiens, UniProt P23219); experiment: Human COX-1 enzyme activity in human whole blood (A23187-stimulated, thromboxane B2 EIA); format: cell-based; settings: for inhibition at 100 µM: read-out: COX-1 Inhibition (% at 100 μM)
T1 construct: endogenous in cells; host or cells: heparinised human whole blood from donors, stimulated with the calcium ionophore A23187
Protocol: (§1) The blood was transported to the laboratory on ice packs and used within 1.5 hours of collection. Upon receipt in the laboratory, the blood was allowed to come to room temperature for 15 minutes prior to distribution in 1 mL aliquots per well of 24 well tissue culture plates. […] Test compounds were dissolved in DMSO, at 1000 fold the final desired concentration, and further diluted, as indicated, in DMSO. One μL of each dilution of the test compound was added per well, in duplicate wells; wells not receiving test compound (e.g., basal, background or control wells) received 1 μL DMSO. […] Louis, Mo., Catalogue No. […] Louis, Mo., Catalogue No. […] (Again, basal, background or control wells not stimulated with A23187 received 1 μL of DMSO.) At 5 hours after the addition of the test compound, all incubations were terminated by placement on ice and the addition of 2 mM EGTA (100 μL of 20 mM EGTA, tetrasodium, in PBS (phosphate buffered saline) without Ca^++ and Mg^++, pH 7.2)). […] One hundred μL of plasma was removed from each blood sample and added to 1 mL of methanol in new 15 mL polypropylene centrifuge tubes, vortexed, and stored overnight at -20° C. […] The samples were assayed for thromboxane B2 using EIA kits supplied by Cayman Chemical Co. […] The % inhibition for COX-1 and COX-2 enzyme activity in human whole blood by the test compounds, at the indicated concentrations, are given in Table 1.

[2] = molecular target: T2, COX-2 (Homo sapiens, UniProt P35354); experiment: Human COX-2 enzyme activity in human whole blood (LPS-induced, thromboxane B2 EIA); format: cell-based; settings: for inhibition at 1 µM: read-out: COX-2 Inhibition (% at 1 μM); for inhibition at 10 µM: read-out: COX-2 Inhibition (% at 10 μM)
T2 construct: To induce COX-2, lipopolysaccharide (LPS) from E. coli; endogenous in cells; host or cells: heparinised human whole blood from donors, with COX-2 induced by E. coli LPS
T2 sequence (P35354 18-604): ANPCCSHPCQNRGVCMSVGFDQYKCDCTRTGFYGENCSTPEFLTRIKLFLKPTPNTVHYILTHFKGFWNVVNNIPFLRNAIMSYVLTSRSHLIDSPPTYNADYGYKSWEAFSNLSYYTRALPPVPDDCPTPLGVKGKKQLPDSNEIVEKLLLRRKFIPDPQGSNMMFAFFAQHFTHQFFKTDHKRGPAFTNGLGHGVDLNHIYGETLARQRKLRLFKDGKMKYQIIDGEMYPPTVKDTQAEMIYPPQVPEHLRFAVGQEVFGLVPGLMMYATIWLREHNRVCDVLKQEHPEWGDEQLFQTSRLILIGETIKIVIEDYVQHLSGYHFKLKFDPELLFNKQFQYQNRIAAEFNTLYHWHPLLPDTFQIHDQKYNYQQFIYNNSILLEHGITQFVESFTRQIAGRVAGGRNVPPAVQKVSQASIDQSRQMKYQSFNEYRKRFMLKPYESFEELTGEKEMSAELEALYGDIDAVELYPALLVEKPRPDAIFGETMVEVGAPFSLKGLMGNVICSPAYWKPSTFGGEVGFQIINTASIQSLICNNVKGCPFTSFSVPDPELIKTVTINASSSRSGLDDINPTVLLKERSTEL
Protocol: as §1

[3] = 100 μM, human whole blood, A23187 stimulation
[4] = 1 μM, human whole blood, LPS induction
[5] = 10 μM, human whole blood, LPS induction

T1 sequence (P23219 24-599): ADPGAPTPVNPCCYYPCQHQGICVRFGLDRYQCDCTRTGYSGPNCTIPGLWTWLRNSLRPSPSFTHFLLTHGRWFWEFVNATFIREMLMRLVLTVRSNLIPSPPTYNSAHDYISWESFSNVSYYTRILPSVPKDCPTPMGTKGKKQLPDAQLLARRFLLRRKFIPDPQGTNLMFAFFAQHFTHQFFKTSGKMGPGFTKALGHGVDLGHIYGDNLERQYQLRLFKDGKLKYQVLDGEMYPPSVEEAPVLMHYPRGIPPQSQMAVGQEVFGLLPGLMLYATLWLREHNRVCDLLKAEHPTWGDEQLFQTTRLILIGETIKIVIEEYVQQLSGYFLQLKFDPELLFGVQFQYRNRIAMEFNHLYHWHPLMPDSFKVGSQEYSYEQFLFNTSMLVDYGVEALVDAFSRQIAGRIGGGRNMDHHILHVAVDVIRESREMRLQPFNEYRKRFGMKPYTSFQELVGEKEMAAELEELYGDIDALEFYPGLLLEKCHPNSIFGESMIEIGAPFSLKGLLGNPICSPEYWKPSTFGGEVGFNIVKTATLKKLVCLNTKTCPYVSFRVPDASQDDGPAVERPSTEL

| Molecule | inhibition at 100 µM [1, 3] [%] | inhibition at 1 µM [2, 4] [%] | inhibition at 10 µM [2, 5] [%] | also measured |
| --- | --- | --- | --- | --- |
| CS(=O)(=O)c1ccc(-c2cc(COCCCO[N+](=O)[O-])nn2-c2ccc(C(F)(F)F)cc2)cc1 [Example 9e, 4-(Methylsulfonyl)-1-(3-((3-(nitrooxy)propoxy)methyl)-1-(4-(trifluoromethyl)phenyl)pyrazol-5-yl)benzene] | 45 | 60 | 100 |  |
| COc1ccc(-n2nc(C(=O)CCCO)cc2-c2ccc(S(C)(=O)=O)cc2)cc1 [Example 24d, 4-Hydroxy-1-(1-(4-methoxyphenyl)-5-(4-(methylsulfonyl)phenyl)-pyrazol-3-yl)butan-1-one] | 85 | 50 | 85 |  |
| CS(=O)(=O)c1ccc(-c2cc(C(=O)CCCO)nn2-c2ccc(Br)cc2)cc1 [Example 14d, 1-(1-(4-Bromophenyl)-5-(4-(methylsulfonyl)phenyl)pyrazol-3-yl)-4-hydroxybutan-1-one] | 0 | 15 | 70 |  |
| NS(=O)(=O)c1ccc(-c2c(-c3ccccc3)noc2COCC(F)(F)CO)cc1 [Example 32c, 4-(5-((2,2-Difluoro-3-hydroxypropoxy)methyl)-3-phenylisoxazol-4-yl)benzenesulfonamide] | -20 | 15 | 75 |  |
| CS(=O)(=O)c1ccc(-c2cc(COCCCO[N+](=O)[O-])nn2-c2ccc(Cl)cc2)cc1 [Example 7e, 1-(1-(4-Chlorophenyl)-3-((3-(nitrooxy)propoxy)methyl)pyrazol-5-yl)-4-(methylsulfonyl)benzene] | 90 | 65 | 100 |  |
| CS(=O)(=O)c1ccc(-c2cc(COCCO[N+](=O)[O-])nn2C2CCCCC2)cc1 [Example 15e, 1-(1-Cyclohexyl-3-((2-(nitrooxy)ethoxy)methyl)pyrazol-5-yl)-4-(methylsulfonyl)benzene] | 35 | 35 | 75 |  |
| 4-(5-(4-Chlorophenyl)-3-((3-hydroxypropoxy)methyl)pyrazolyl)benzenesulfonamide [Example 28a] |  |  |  | COX-1 Inhibition (% at 100 μM) [1, 3]: 30%; COX-2 Inhibition (% at 1 μM) [2, 4]: 30%; COX-2 Inhibition (% at 10 μM) [2, 5]: 55% |
| CS(=O)(=O)c1ccc(-c2cc(C(=O)CCCCCO)nn2C2CCCCC2)cc1 [Example 22c, 1-(1-Cyclohexyl-5-(4-(methylsulfonyl)phenyl)-pyrazol-3-yl)-6-hydroxyhexan-1-one] | 40 | 25 | 80 |  |
| COc1ccc(-n2nc(COCCCO[N+](=O)[O-])cc2-c2ccc(S(C)(=O)=O)cc2)cc1 [Example 39, 4-(1-(4-Methoxyphenyl)-3-((3-(nitrooxy)propoxy)methyl)pyrazol-5-yl)-1-(methylsulfonyl)benzene] | 100 | 85 | 100 |  |
| 4-(5-(Chlorophenyl)-3-((3-(nitrooxy)propoxy)methyl)benzene-sulfonamide [Example 36c] |  |  |  | COX-1 Inhibition (% at 100 μM) [1, 3]: 55%; COX-2 Inhibition (% at 1 μM) [2, 4]: 40%; COX-2 Inhibition (% at 10 μM) [2, 5]: 80% |
| CS(=O)(=O)c1ccc(-c2cc(/C=C\CCO)nn2-c2ccccc2)cc1 [Example 11d] |  |  |  | COX-1 Inhibition (% at 100 μM) [1, 3]: 25%; COX-2 Inhibition (% at 1 μM) [2, 4]: 0%; COX-2 Inhibition (% at 10 μM) [2, 5]: 30% |
| CS(=O)(=O)c1ccc(-c2cc(CNCCO)nn2C2CCCCC2)cc1 [Example 38c, 1-(1-Cyclohexyl-3-(((2-hydroxyethyl)amino)methyl)pyrazol-5-yl)-4-(methylsulfonyl)benzene] | 10 | 15 | 25 |  |
| CS(=O)(=O)c1ccc(-c2cc(C(=O)CCCO)nn2C2CCCCC2)cc1 [Example 3e, 1-(1-Cyclohexyl-5-(4-(methylsulfonyl)phenyl)pyrazol-3-yl)-4-hydroxybutan-1-one] | 0 | 60 | 90 |  |
| CC(O)CCOCc1cc(-c2ccc(S(C)(=O)=O)cc2)n(-c2ccccc2)n1 (stereo not drawn) [Example 19b, 1-(3-((3-Hydroxybutoxy)methyl)-1-phenylpyrazol-5-yl)-4-(methylsulfonyl)benzene] | 40 | 20 | 100 |  |
| CS(=O)(=O)c1ccc(-c2cc(CCCC(=O)OCCCO[N+](=O)[O-])nn2-c2ccc(C(F)(F)F)cc2)cc1 [Example 47f, 3-(Nitrooxy)propyl 4-(5-(4-(methylsulfonyl)phenyl)-1-(4-(trifluoromethyl)-phenyl)pyrazol-3-yl)butanoate] | 85 | 30 | 65 |  |
| CS(=O)(=O)c1ccc(-c2cc(/C=C/CO[N+](=O)[O-])nn2C2CCCCC2)cc1 [Example 41, 1-(3-((1E)-3-(Nitrooxy)prop-1-enyl)-1-cyclohexylpyrazol-5-yl)-4-(methylsulfonyl)benzene] | 40 | 0 | 45 |  |
| CS(=O)(=O)c1ccc(-c2cc(C(=O)CO[N+](=O)[O-])nn2-c2ccccn2)cc1 [Example 35c, 1-(5-(4-(Methysulfonyl)phenyl)-1-(2-pyridyl)pyrazol-3-yl)-2-(nitrooxy)ethan-1-one] |  |  |  | COX-1 Inhibition (% at 100 μM) [1, 3]: 0%; COX-2 Inhibition (% at 1 μM) [2, 4]: 25%; COX-2 Inhibition (% at 10 μM) [2, 5]: 30% |
| CS(=O)(=O)c1ccc(-c2cc(COCCCO)nn2C2CCCCC2)cc1 [Example 16b, 1-(1-Cyclohexyl-3-((3-hydroxypropoxy)methyl)pyrazol-5-yl)-4-(methylsulfonyl)benzene] | 10 | 20 | 55 |  |
| CS(=O)(=O)c1ccc(-n2nc(/C=C\CCO)cc2-c2cccnc2)cc1 [Example 25e, 1-(3-((1Z)-4-Hydroxybut-1-enyl)-5-(3-pyridnyl)pyrazolyl)-4-(methylsulfonyl)benzene] |  |  |  | COX-1 Inhibition (% at 100 μM) [1, 3]: 10%; COX-2 Inhibition (% at 1 μM) [2, 4]: 15%; COX-2 Inhibition (% at 10 μM) [2, 5]: 0% |
| CS(=O)(=O)c1ccc(-c2cc(/C=C/CCO[N+](=O)[O-])nn2-c2ccccc2)cc1 [Example 11f, 1-(3-((1E)-4-(Nitrooxy)but-1-enyl)-1-phenylpyrazol-5-yl)-4-(methylsulfonyl)benzene] | 85 | 55 | 90 |  |
| NS(=O)(=O)c1ccc(-c2c(-c3ccccc3)noc2COCC(F)(F)C(F)(F)C(F)(F)CO)cc1 [Example 34a, 4-(5-((2,2,3,3,4,4-Hexafluoro-5-hydroxypentyloxy)methyl)-3-phenylisoxazol-4-yl)benzenesulfonamide] |  |  |  | inhibition at 100 µM [1]: 95%; inhibition at 1 µM [2]: 90%; inhibition at 10 µM [2]: 100% |
| NS(=O)(=O)c1ccc(-c2c(-c3ccccc3)noc2COCCS(=O)(=O)CCO[N+](=O)[O-])cc1 [Example 37c] |  |  |  | COX-1 Inhibition (% at 100 μM) [1, 3]: −15%; COX-2 Inhibition (% at 1 μM) [2, 4]: 20%; COX-2 Inhibition (% at 10 μM) [2, 5]: 20% |
| CS(=O)(=O)c1ccc(-c2cc(COCCCO)nn2-c2ccc(C(F)(F)F)cc2)cc1 [Example 9d, 1-(3-((3-Hydroxypropoxy)methyl)-1-(4-(trifluoromethyl)phenyl)pyrazol-5-yl)-4-(methylsulfonyl)benzene] | 40 | 30 | 85 |  |

Reference: patent US7442802B2, “Cyclooxygenase-2 selective inhibitors, compositions and methods of use” (NitroMed, Inc., priority 2002, dated 2008)
